Melting point data for 44 compounds are collected here from patent US7399775B2, “β-amyloid protein production/secretion inhibitor” (Daiichi Pharmaceutical Co., Ltd., priority 2001, dated 2008).

For orientation: melting point means the temperature, or range, at which the solid turns liquid.

`O=c1oc2ccccc2c(O)c1C(Sc1ccc(Cl)cc1)c1cc(F)ccc1F` (centres unmarked) returned a melting point of 146 to 147 °C.
Under `Cl.O=C(OCCC(c1cc(F)ccc1F)S(=O)(=O)c1ccc(Cl)cc1)N1CCN(Cc2ccccc2)CC1` (centres unmarked) stands 184 to 189 °C; under `Cl.NCCCC(c1cc(F)ccc1F)S(=O)(=O)c1ccc(Cl)cc1` (centres unmarked), 232 to 233 °C.
Under `Cl.O=C(NCCCC(c1cc(F)ccc1F)S(=O)(=O)c1ccc(Cl)cc1)c1cccnc1` (centres unmarked) stands 154 to 157 °C; under `Cl.O=S(=O)(c1ccc(Cl)cc1)C(CCCCN1CCCC1)c1cc(F)ccc1F` (centres unmarked), 167 to 170.5 °C; under `Cl.O=S(=O)(c1ccc(Cl)cc1)C(CCNCCO)c1cc(F)ccc1F` (centres unmarked), 216 to 220 °C.
On to `Cl.O=S(=O)(c1ccc(Cl)cc1)C1(c2cc(F)ccc2F)CCNCC1`, for which the melting point was 239 to 246 °C (dec.).
Under `Cl.O=S(=O)(c1ccc(Cl)cc1)C(c1cc(F)ccc1F)C1CCNCC1` (centres unmarked) stands 184 to 190 °C; under `O=S(=O)(c1ccc(Cl)cc1)C(c1cc(F)ccc1F)c1cc(Cl)ncc1Cl` (centres unmarked) (hydrate or solvate) [Example 345, 2,5-Dichloro-4-[(4-chlorophenylsulfonyl)-(2,5-difluorophenyl)methyl]pyridine 0.5 hydrate], 147 to 148 °C; under `CC(CCO)C(c1cc(F)ccc1F)S(=O)(=O)c1ccc(Cl)cc1` (single isomer, unassigned) [Example 238, 4-(4-Chlorophenylsulfonyl)-4-(2,5-difluorophenyl)-3-methyl-1-butanol], 111 to 112 °C.
Under `CC(CCO)C(c1cc(F)ccc1F)S(=O)(=O)c1ccc(Cl)cc1` (single isomer, unassigned) [Example 239, 4-(4-Chlorophenylsulfonyl)-4-(2,5-difluorophenyl)-3-methyl-1-butanol] stands 65 to 67 °C.
Under `O=S(=O)(/C(=C/c1ccccc1)c1cc(F)ccc1F)c1ccc(Cl)cc1` [Example 6, E-2-[1-[(4-Chlorophenyl)sulfonyl]-2-phenylethenyl]-1,4-difluorobenzene] stands 144.5 to 145 °C; under `CCCC(=O)C(c1cc(F)ccc1F)S(=O)(=O)c1ccc(Cl)cc1` (centres unmarked) [Example 7, 1-[(4-Chlorophenyl)sulfonyl]-1-(2,5-difluorophenyl)-2-pentanone], 85.5 to 86 °C.
Take `O=C(c1ccccc1)C(c1cc(F)ccc1F)S(=O)(=O)c1ccc(Cl)cc1` (centres unmarked) [Example 8, 2-[(4-Chlorophenyl)sulfonyl]-2-(2,5-difluorophenyl)-1-phenyl-1-ethanone]: the melting point lay in the range of 179.5 to 180 °C.
In turn, `O=C(OC(=C(c1cc(F)ccc1F)S(=O)(=O)c1ccc(Cl)cc1)c1ccccc1)c1ccccc1` [Example 9, 2-[(4-Chlorophenyl)sulfonyl]-2-(2,5-difluorophenyl)-1-phenylethenyl benzoate] returned a melting point of 224.5 to 227 °C.
`CCCC(O)C(c1cc(F)ccc1F)S(=O)(=O)c1ccc(Cl)cc1` (centres unmarked) [Example 11, 1-[(4-Chlorophenyl)sulfonyl]-1-(2,5-difluorophenyl)-2-pentanol] had a melting point of 76.5 to 78 °C.
Under `O=S(=O)(c1ccc(Cl)cc1)C(CCCCO)(CCCCO)c1cc(F)ccc1F` [Example 19, 5-[(4-Chlorophenyl)sulfonyl]-5-(2,5-difluorophenyl)-1,9-nonanediol] stands 107 to 108.5 °C; under `CCOC(=O)CC(c1cc(F)ccc1F)S(=O)(=O)c1ccc(Cl)cc1` (centres unmarked) [Example 25, Ethyl 3-[(4-chlorophenyl)sulfonyl]-3-(2,5-difluorophenyl)propionate], 99.5 to 100.5 °C; under `CSCCCCC(c1cc(F)ccc1F)S(=O)(=O)c1ccc(Cl)cc1` (centres unmarked) [Example 26, 2-[1-[(4-Chlorophenyl)sulfonyl]-5-(methylthio)pentyl]-1,4-difluorobenzene], 103 to 106 °C.
Under `C=COCCCCC(c1cc(F)ccc1F)S(=O)(=O)c1ccc(Cl)cc1` (centres unmarked) [Example 28, 2-[1-[(4-Chlorophenyl)sulfonyl]-5-vinyloxypentyl]-1,4-difluorobenzene] stands 54 to 56 °C; under `O=S(=O)(c1ccc(Cl)cc1)C1(c2cc(F)ccc2F)CCCC1` [Example 30, 2-[1-[(4-Chlorophenyl)sulfonyl]cyclopentyl]-1,4-difluorobenzene], 153 to 155 °C; under `C=COCCOCCC(c1cc(F)ccc1F)S(=O)(=O)c1ccc(Cl)cc1` (centres unmarked) [Example 34, 2-[1-[(4-Chlorophenyl)sulfonyl]-3-(2-vinyloxyethoxy)propyl]-1,4-difluorobenzene], 55 to 56 °C.
Under `O=S(=O)(c1ccc(Cl)cc1)C(CCCCCBr)c1cc(F)ccc1F` (centres unmarked) [Example 37, 2-[6-Bromo-1-[(4-chlorophenyl)sulfonyl]hexyl]-1,4-difluorobenzene] stands 77 to 79 °C; under `CC(CCCO)C(c1cc(F)ccc1F)S(=O)(=O)c1ccc(Cl)cc1` (centres unmarked) [Example 39, 5-[(4-Chlorophenyl)sulfonyl]-5-(2,5-difluorophenyl)-4-methyl-1-pentanol], 84 to 86 °C.
`CC(CCCO)C(c1cc(F)ccc1F)S(=O)(=O)c1ccc(Cl)cc1` (centres unmarked) [Example 40, 5-[(4-Chlorophenyl)sulfonyl]-5-(2,5-difluorophenyl)-4-methyl-1-pentanol]: the melting point fell in the range of 67 to 69 °C.
Consider `O=S(=O)(Cc1ccccc1)c1ccc(Cl)cc1` [Example 50, 1-Chloro-4-(benzylsulfonyl)benzene], for which the melting point lay within 147.5 to 148.5 °C.
`CS(=O)(=O)CCCCC(c1ccccc1)S(=O)(=O)c1ccc(Cl)cc1` (centres unmarked) [Example 51, 1-Chloro-4-(5-methylsulfonyl-1-phenylpentyl)sulfonylbenzene]: the melting point lay in the range of 151 to 152 °C.
`C[S+]([O-])CCCCC(c1ccccc1)S(=O)(=O)c1ccc(Cl)cc1` (centres unmarked) [Example 52, 1-Chloro-4-(5-methylsulfinyl-1-phenylpentyl)sulfonylbenzene]: the melting point fell in the range of 98.5 to 99.5 °C.
On to `CS(=O)(=O)CCCCC(c1ccccc1F)S(=O)(=O)c1ccc(Cl)cc1` (centres unmarked) [Example 53, 1-[1-[(4-Chlorophenyl)sulfonyl]-5-(methylsulfonyl)pentyl]-2-fluorobenzene], for which the melting point lay within 167 to 168 °C.
As for `CS(=O)(=O)CCCCC(c1cccc(F)c1)S(=O)(=O)c1ccc(Cl)cc1` (centres unmarked) [Example 54, 1-[1-[(4-Chlorophenyl)sulfonyl]-5-(methylsulfonyl)pentyl]-3-fluorobenzene], the melting point fell in the range of 116 to 117 °C.
Under `CS(=O)(=O)CCCCC(c1ccc(F)cc1)S(=O)(=O)c1ccc(Cl)cc1` (centres unmarked) [Example 55, 1-[1-[(4-Chlorophenyl)sulfonyl]-5-(methylsulfonyl)pentyl]-4-fluorobenzene] stands 141 to 142.5 °C; under `CSC(c1cc(F)ccc1F)S(=O)(=O)c1ccc(Cl)cc1` (centres unmarked) [Example 56, 2-[1-[(4-Chlorophenyl)sulfonyl]-1-methylthio]methyl-1,4-difluorobenzene], 128 to 129 °C; under `O=S(=O)(c1ccc(Cl)cc1)C(Sc1ccccc1)c1cc(F)ccc1F` (centres unmarked) [Example 57, 2-[1-[(4-Chlorophenyl)sulfonyl]-1-phenylthio]methyl-1,4-difluorobenzene], 84 to 85 °C.
`O=C(CC(c1cc(F)ccc1F)S(=O)(=O)c1ccc(Cl)cc1)OCc1ccccc1` (centres unmarked) [Example 59, Benzyl 3-(4-chlorophenylsulfonyl)-3-(2,5-difluorophenyl)propionate] returned a melting point of 127 to 128 °C.
Under `CC(C)(C)OC(=O)CC(c1cc(F)ccc1F)S(=O)(=O)c1ccc(Cl)cc1` (centres unmarked) [Example 61, t-Butyl 3-[(4-chlorophenyl)sulfonyl]-3-(2,5-difluorophenyl)propionate] stands 140.5 to 142 °C.
`O=C(O)CC(c1cc(F)ccc1F)S(=O)(=O)c1ccc(Cl)cc1` (centres unmarked) [Example 62, 3-[(4-Chlorophenyl)sulfonyl]-3-(2,5-difluorophenyl)propionic Acid] showed a melting point of 152 to 153 °C.
Under `CS(=O)(=O)CCCCC(c1ccc2ccccc2c1)S(=O)(=O)c1ccc(Cl)cc1` (centres unmarked) [Example 67, 2-[1-[(4-Chlorophenyl)sulfonyl]-5-(methylsulfonyl)pentyl]naphthalene] stands 146 to 147 °C; under `CS(=O)(=O)CCCCC(c1ccc(F)cc1Cl)S(=O)(=O)c1ccc(Cl)cc1` (centres unmarked) [Example 68, 2-Chloro-1-[1-[(4-chlorophenyl)sulfonyl]-5-(methylsulfonyl)pentyl]-4-fluorobenzene], 124 to 125 °C; under `CS(=O)(=O)CCCCC(c1ccc(Cl)c(Cl)c1)S(=O)(=O)c1ccc(Cl)cc1` (centres unmarked) [Example 69, 1,2-Dichloro-4-[1-[(4-chlorophenyl)sulfonyl]-5-(methylsulfonyl)pentyl]benzene], 143 to 144 °C.
As for `CS(=O)(=O)CCCCC(c1ccccn1)S(=O)(=O)c1ccc(Cl)cc1` (centres unmarked) [Example 70, 2-[1-[(4-Chlorophenyl)sulfonyl]-5-(methylsulfonyl)pentyl]pyridine], the melting point is 140 to 141 °C.
Under `CS(=O)(=O)CCCCC(c1cc(F)cc(F)c1)S(=O)(=O)c1ccc(Cl)cc1` (centres unmarked) [Example 72, 1-[1-[(4-Chlorophenyl)sulfonyl]-5-(methylsulfonyl)pentyl]-3,5-difluorobenzene] stands 126 to 127 °C.
Turning to `CS(=O)(=O)CCCCC(c1ccncc1)S(=O)(=O)c1ccc(Cl)cc1` (centres unmarked) [Example 74, 4-[1-[(4-Chlorophenyl)sulfonyl]-5-(methylsulfonyl)pentyl]pyridine], the melting point lay in the range of 181 to 182 °C.
Under `CS(=O)(=O)CCCCC(c1ccc(F)c(F)c1)S(=O)(=O)c1ccc(Cl)cc1` (centres unmarked) [Example 76, 4-[1-(4-Chlorophenylsulfonyl)-5-(methylsulfonyl)pentyl]-1,2-difluorobenzene] stands 122 to 124 °C.
As for `CS(=O)(=O)CCCCC(c1cccc(F)c1F)S(=O)(=O)c1ccc(Cl)cc1` (centres unmarked) [Example 77, 1-[1-(4-Chlorophenylsulfonyl)-5-(methylsulfonyl)pentyl]-2,3-difluorobenzene], the melting point lay in the range of 141 to 143 °C.
